Structures are written as SMILES. Some results are limits rather than exact numbers.

The subject of test [1] is A549. Nature of the test: Antiproliferative activity against human A549 cells assessed as inhibition of cell growth incubated for 72 hrs by SRB assay. Type of test: functional, cell-based. The following applies: A549, 72 h. (Sulforhodamine B stains cellular protein and so reports cell mass.)
In test [2] the test system is MCF7. The experiment in a line: Antiproliferative activity against human MCF7 cells assessed as inhibition of cell growth incubated for 72 hrs by SRB assay. Type of test: functional, cell-based. The following applies: MCF7, 72 h.
Test [3] has as its system HCT-116. The experiment in a line: Cytotoxicity against human HCT-116 cells assessed as reduction in cell viability at 20 uM measured after 48 hrs by MTS assay relative to control. Type of test: functional. For orientation: Tetrazolium dyes change colour on reduction, which living cells bring about.
Test [4] relates to CAKI-2. Nature of the test: Antiproliferative activity against human CAKI-2 cells assessed as inhibition of cell growth incubated for 24 hrs by SRB assay. Type of test: functional, cell-based. The following applies: CAKI-2, 24 h.
In test [5] the test system is MCF7. The experiment in a line: Antiproliferative activity against human MCF7 cells assessed as inhibition of cell growth incubated for 24 hrs by SRB assay. Type of test: functional, cell-based. The following applies: MCF7, 24 h.
In test [6] the test system is LS174T. The experiment in a line: Antiproliferative activity against human LS174T cells assessed as inhibition of cell growth incubated for 24 hrs by SRB assay. The class given is functional, cell-based.
Test [7] can be described thus: Antiproliferative activity against human StMl1 1a cells assessed as inhibition of cell growth incubated for 24 hrs by SRB assay. The class given is functional, cell-based.
For test [8], the system named is HT-29. Nature of the test: Antiproliferative activity against human HT-29 cells assessed as inhibition of cell growth incubated for 48 hrs by SRB assay. Type of test: functional, cell-based.
In test [9] the test system is HepG2. Nature of the test: Antiproliferative activity against human HepG2 cells assessed as inhibition of cell growth by MTT assay. Type of test: functional, cell-based.
In test [10] the test system is MCF7. The experiment in a line: Antiproliferative activity against human MCF7 cells assessed as inhibition of cell growth by MTT assay. Type of test: functional, cell-based.
The test system of test [11] is LoVo. Nature of the test: Antiproliferative activity against human LoVo cells assessed as inhibition of cell growth by MTT assay. The class given is functional, cell-based.
For test [12], the system named is A549. The experiment in a line: Antiproliferative activity against human A549 cells assessed as inhibition of cell growth. The class given is functional, cell-based.
In test [13] the test system is SMMC-7721. The experiment in a line: Antiproliferative activity against human SMMC-7721 cells assessed as inhibition of cell growth. The class given is functional, cell-based.
Test [14] has as its system MCF7. Nature of the test: Antiproliferative activity against human MCF7 cells assessed as inhibition of cell growth. The class given is functional, cell-based.
The test system of test [15] is SW480. The experiment in a line: Antiproliferative activity against human SW480 cells assessed as inhibition of cell growth. The class given is functional, cell-based.
For test [16], the system named is HT-29. The experiment in a line: Antiproliferative activity against human HT-29 cells assessed as inhibition of cell growth. Type of test: functional, cell-based.
In test [17] the test system is HL-60. Nature of the test: Antiproliferative activity against human HL-60 cells assessed as inhibition of cell growth. The class given is functional, cell-based.
Test [18] deals with HCT-116. The experiment in a line: Antiproliferative activity against human HCT-116 cells assessed as inhibition of cell growth. The class given is functional, cell-based.

A word on the IC50: it is the concentration needed to halve the response being measured. With `CC[C@@H]1CN(C)[C@H]2Cc3c([nH]c4ccccc34)[C@H](c3cc4c5c([nH]c4cc3OC)[C@@]3(C(=O)OC)C[C@H]4C[C@@H](CC)[C@@H]3N(CC5)[C@H]4CC(C)=O)C[C@H]1[C@@H]2C(=O)OC`, the IC50 in test [1] and in [2] was below 10 µM throughout. Further, the Activity in test [3] was found to be 70%.

`C/C=C1/CN2CC[C@@]34C[C@H]5[C@@H]6C[C@H]7c8c(c9ccccc9n8C)C[C@@H]([C@@H]6CO[C@@]5(C)O[C@@]35[C@@H]2C[C@@H]1[C@@H](C(=O)OC)N5c1ccccc14)N7C`: the IC50 in [4] came out at 2 µM; in test [5], 2 µM; in [6], 2 µM; in test [7], 2 µM; in test [8] (HT-29, 48 h), 8 µM.

`CC[C@@H]1C[C@H]2C[C@](C(=O)OC)(c3cc4c(cc3OC)N(C)[C@H]3[C@@](O)(C(=O)OC)[C@H](OC(C)=O)[C@]5(CC)C=CCN6CC[C@]43[C@@H]65)c3[nH]c4ccccc4c3CC[N+]([O-])(C1)C2`: the IC50 in test [9] came to 38.2 µM; in test [10], 51.3 µM; in [11], 65.2 µM.

In the case of `CC[C@@]12CC(C(=O)OC)=C3Nc4cc5c(cc4[C@@]34CCN(C[C@H]3O[C@H]31)[C@@H]24)[C@@H]1[C@H](O5)[C@@H](O)[C@@]2(CC)CC(C(=O)OC)=C3Nc4c(cc(O)c(OC)c4OC)[C@@]34CCN1[C@@H]24` [CONOPHYLLINE], the IC50 in test [12], in test [13], in test [14] and in [15] was 0.17 µM in each case.

`C/C=C1/C[N+]2(C)CC[C@@]34C[C@H]5[C@@H]6C[C@H]7c8c(c9ccccc9n8C)C[C@@H]([C@@H]6CO[C@@]5(C)O[C@@]35[C@@H]2C[C@@H]1[C@@H](C(=O)OC)N5c1ccccc14)N7C` (some centres undefined): in test [8] (HT-29, time 48 hrs, read-out: ED50 (the source's name)), the EC50 amounted to 6.5 µM.

On to `C/C=C1/CN2CC[C@@H]3c4ccccc4N4[C@H](C(=O)OC)[C@H]1C[C@H]2[C@]34/C=C/C1=COC[C@@H]2[C@H]1C[C@H]1c3c(c4ccccc4n3C)C[C@@H]2N1C`, for which the IC50 in test [4], in [5], in test [6] and in test [7] was 2 µM throughout.

Consider `COC(=O)C1=CN2CCc3c([nH]c4ccccc34)[C@@H]2C[C@@H]1C1=CO[C@@H]([C@H]2[C@@H]3CCN4CC[C@@]5(C(=C3C(=O)OC)Nc3ccccc35)[C@@H]24)C[C@@H]1C`, for which the IC50 in [12] was 0.00309 µM; in test [16], 0.00205 µM.

On to `C=C1[C@H]2C[C@@H]3N(CC[C@@]34c3cccc5c3N(C[C@H]3[C@H]6C[C@@H]7N(CC[C@@]78c7ccccc7N[C@@]538)C[C@H]6CC)[C@@H]14)C[C@H]2CC`, for which the IC50 in test [12], in [17], in test [14] and in [18] was 3.8 µM throughout.

Take `CC[C@H]1CN(C)[C@H]2Cc3c([nH]c4ccccc34)[C@H](c3c(OC)ccc4c5c([nH]c34)[C@]3(C(=O)OC)C[C@@H]4C[C@H](CC)[C@@H]3N(CC5)C4)C[C@H]1[C@@H]2C(=O)OC`: the IC50 in test [1] and in test [2] was 10.9 µM in each case. In addition, in test [3], the Activity amounted to 40%.

Take `C/C=C1\CN(C)[C@H]2Cc3c([nH]c4ccccc34)[C@H](c3c(O)ccc4c5c([nH]c34)[C@]3(C(=O)OC)C[C@@H]4C[C@H](CC)[C@@H]3N(CC5)C4)C[C@H]1[C@]2(CO)C(=O)OC`: the IC50 in test [12], in test [17], in [13], in [14] and in test [15] was 0.17 µM throughout.

(Values after ChEMBL document CHEMBL5331060, “Bisindole natural products: A vital source for the development of new anticancer drugs” (Eur J Med Chem, 2022).)
